Laboratory results reported in US7848888B2, “Method for identification of biologically active agents” (Vitruvean LLC, priority 2002, dated 2010).

Assays:
wild-type flies = assay: Motion tracking with wild-type flies; format: in vivo, Drosophila; conditions: flies fed 0.1M or 0.05M, compared to controls; FIG. 19
Excerpt: In the present exemplary application, to capture a movie of the movement of flies within specimen container 104, robot 114 grabs a specimen container 104 and positions it in front of camera 124. However, before positioning specimen container 104 in front of camera 124, robot 114 first raises specimen container 104 above a distance, such as about 2 centimeters, above base plate 106, then releases specimen container 104, which forces the flies within specimen container 104 to fall down to the bottom of specimen container 104. Robot 114 then grabs specimen container 104 again and positions it to be filmed by camera 124. In one exemplary embodiment, camera 124 captures about 40 consecutive frames at a frame rate of about 10 frames per second. It should be noted, however, that the number of frames captured and the frame rate used can vary. Additionally, the step of dropping specimen container 104 prior to filming can be omitted.
“Movement trait data” as used herein refers to the measurements made of one or more movement traits. Examples of “movement trait data” measurements include, but are not limited to X-pos, X-speed, speed, turning, stumbling, size, T-count, P-count, T-length, Cross150, Cross250, and F-count. Descriptions of these particular measurements are provided below. • X-Pos: The X-Pos score is calculated by concatenating the lists of x-positions for all trajectories and then computing the average of all values in the concatenated list. • X-Speed: The X-Speed score is calculated by first computing the lengths of the x-components of the speed vectors by taking the absolute difference in x-positions for subsequent frames. The resulting lists of x-speeds for all trajectories are then concatenated and the average x-speed for the concatenated list is computed. • Speed: The Speed score is calculated in the same way as the X-Speed score, but instead of only using the length of the x-component of the speed vector, the length of the whole vector is used. […]

flies = conditions: administered orally to flies; cited from earlier work
[1] = tested on: Drosophila expressing a mutant form of human Huntington (HD); assay: Motion tracking with Drosophila model of Huntington disease; format: in vivo; conditions: HD model with drug vs HD model without drug
Protocol: “Movement trait data” as used herein refers to the measurements made of one or more movement traits. Examples of “movement trait data” measurements include, but are not limited to X-pos, X-speed, speed, turning, stumbling, size, T-count, P-count, T-length, Cross150, Cross250, and F-count. Descriptions of these particular measurements are provided below. • X-Pos: The X-Pos score is calculated by concatenating the lists of x-positions for all trajectories and then computing the average of all values in the concatenated list. • X-Speed: The X-Speed score is calculated by first computing the lengths of the x-components of the speed vectors by taking the absolute difference in x-positions for subsequent frames. The resulting lists of x-speeds for all trajectories are then concatenated and the average x-speed for the concatenated list is computed. • Speed: The Speed score is calculated in the same way as the X-Speed score, but instead of only using the length of the x-component of the speed vector, the length of the whole vector is used. That is, [length]=square root of ([x-length]^2+[y-length]^2). • Turning: The Turning score is calculated in the same way as the Speed score, but instead of using the length of the speed vector, the absolute angle between the current speed vector and the previous one is used, giving a value between 0 and 90 degrees. • Stumbling: The Stumbling score is calculated in the same way as the Speed score, but instead of using the length of the speed vector, the absolute angle between the current speed vector and the direction of body orientation is used, giving a value between 0 and 90 degrees. • Size: The Size score is calculated in the same way as the Speed score, but instead of using the length of the speed vector, the size of the detected fly is used. • T-Count: The T-Count score is the number of trajectories detected in the movie. • P-Count: The P-Count score is the total number of points in the movie (i.e., the number of points in each trajectory, summed over all trajectories in the movie). • T-Length: The T-Length score is the sum of the lengths of all speed vectors in the movie, giving the total length all flies in the movie have walked. • Cross150: The Cross150 score is the number of trajectories that either crossed the line at x=150 in the negative x-direction (from bottom to top of the vial) during the movie, or that were already above that line at the start of the movie. […] In other words this score measures the number of detected flies that either managed to hold on to the tube or that managed to climb above the x=150 line within the length of the movie. • Cross250: The Cross250 score is equivalent to the Cross150 score, but uses a line at x=250 instead. • F-Count: The F-Count score counts the number of detected flies in each individual frame, and then takes the maximum of these values over all frames. […]
Drosophila expressing a mutant form of human Huntington (HD) have a functional deficit that is quantifiable, reproducible, and is suitable for automated high-throughput screening. Drosophila (or specimen) movements can be analyzed for various characteristics and/or traits. For example, statistics on the movements of the specimens, such as the x and y travel distance, path length, speed, turning, and stumbling, can be calculated. […]
Differences between the HD model+/−drug (HDAC inhibitor, TSA) and wild type (control)+/−drug (TSA) can clearly be detected using the motion tracking software. […]

[Cl-].[Li+] [LiCl, Lithium Chloride]
incidence of stumbling (wild-type flies): increased incidence | incidence of turning (wild-type flies): increased incidence | speed (wild-type flies): significant reduction

O=C1NC(=O)C(c2ccccc2)(c2ccccc2)N1 [Phenytoin]
seizure and mean recovery times following seizure (flies): reduce

CC(/C=C/C(=O)NO)=C\[C@@H](C)C(=O)c1ccc(N(C)C)cc1 [TSA]
Speed score ([1]; p-values, FIG. 21B): do not yield significant values | Turning score ([1]; p-values, FIG. 21D): do not yield significant values | Stumbling score ([1]; p-values, FIG. 21F): do not yield significant values | T-Length score ([1]; p-values, FIG. 21H): best highlight the therapeutic effect | motor performance, Cross150 score (climbing ability) ([1]; FIG. 20, 21J): restore climbing ability for HD flies to almost the same level as for wt flies

CC1(C)O[C@@H]2[C@@H](CO[C@@]3(COS(N)(=O)=O)OC(C)(C)O[C@@H]23)O1 [Topiramate]
seizure and mean recovery times following seizure (flies): reduce

NCC1(CC(=O)O)CCCCC1 [Gabapentin]
seizure and mean recovery times following seizure (flies): reduce
